Molecules are shown by their SMILES.

Consider 1 compound from article PMC11372076, “A dual inhibitor of PIP5K1C and PIKfyve prevents SARS-CoV-2 entry into cells” (Experimental & Molecular Medicine, 2024).

The subject of assay [1] is Delta variant (B.1.617.2) spike-pseudotyped virus. It is filed as cell-based, SARS-CoV-2.
For assay [2], the system named is Omicron variant (BA.1) spike-pseudotyped virus. It is filed as cell-based, SARS-CoV-2.

On to `c1ccc(-c2cc(Nc3nc(-c4ccncc4)nc4ccccc34)n[nH]2)cc1` [UNI418, N -(5-phenyl-1 H -pyrazol-3-yl)-2-(4-pyridinyl)-4-quinazolinamine], for which the pseudotyped virus entry result in assay [1] and in assay [2] was “markedly inhibited” throughout.
